Our source for the IC50 values is ChEMBL document CHEMBL1144625, “A new platinum complex of triazine demonstrates G1 arrest with novel biological profile in human breast cancer cell line, MDA-MB-468” (Bioorg Med Chem Lett, 2007).

The test system of the assay is MDA-MB-468. The experiment in a line: Antiproliferative activity against MDA-MB-468 cells by MTT assay. In kind it is functional, cell-based. The settings on record: Homo sapiens. (Formazan colour is commonly taken as a measure of viable cells.)
With `c1ccc(Sc2nc(N3CCSCC3)nc(N3CCSCC3)n2)nc1`, the IC50 was greater than 100 µM.

For the molecule `c1ccc(Sc2nc(N3CC3)nc(N3CC3)n2)nc1`, the half-inhibitory concentration (IC50) is greater than 100 µM.

`c1ccc(Sc2nc(N3CCOCC3)nc(N3CCOCC3)n2)nc1` had an IC50 greater than 100 µM.

Broadly, the IC50 is the point on the concentration scale where inhibition reaches its midpoint.
